In patent publication US8735414B2 (priority 2009, dated 2014):

Experiments:
[1] = test system: bicistronic HCV replicon (replicon RNA, GenBank Accession No. AJ242654); experiment: HCV Replicon Assay; type: cell-based; conditions: Hepatitis C virus, 72 h, read-out: Replicon IC50

With CC(C)(C)NS(=O)(=O)c1ccc(-c2c(C#N)c3cc(F)c(O)cc3n2C2CCC2)nc1 [compound 719, N-tert-butyl-6-(3-cyano-1-cyclobutyl-5-fluoro-6-hydroxy-1H-indol-2-yl)pyridine-3-sulfonamide] the IC50 [1] was 500 to 2000 nM and the melting point was 242 to 245 °C.

Work on C[C@H](NS(=O)(=O)c1ccc(-c2c(C#N)c3cc(F)c(Cl)cc3n2C2CCC2)nc1)C(F)(F)F [compound 360, 6-(6-chloro-3-cyano-1-cyclobutyl-5-fluoro-1H-indol-2-yl)-N-[(2S)-1,1,1-trifluoropropan-2-yl]pyridine-3-sulfonamide] yielded an IC50 [1] of under 500 nM and a melting point of 203 to 206 °C.

In the case of CCS(=O)(=O)Nc1ccc(-c2c(C#N)c3ccc(C4CC4)cc3n2C2CCC2)cn1 [compound 288, N-[5-(3-cyano-1-cyclobutyl-6-cyclopropyl-1H-indol-2-yl)pyridin-2-yl]ethanesulfonamide], the IC50 [1] is reported as 500 to 2000 nM and the melting point is reported as 241 to 243 °C.

For C[C@H](NS(=O)(=O)c1ccc(-c2c(C#N)c3ccc(C(F)(F)F)cc3n2-c2cnccn2)nc1)C(F)(F)F [compound 951, 6-[3-cyano-1-(pyrazin-2-yl)-6-(trifluoromethyl)-1H-indol-2-yl]-N-[(2S)-1,1,1-trifluoropropan-2-yl]pyridine-3-sulfonamide], the IC50 [1] was under 500 nM and the melting point was 208 to 213 °C.

Compound C[C@@H](NS(=O)(=O)c1ccc(-c2c(C#N)c3ccc(C4CC4)cc3n2C2CCCC2)nc1)C(F)(F)F [compound 211, 6-(3-cyano-1-cyclopentyl-6-cyclopropyl-1H-indol-2-yl)-N-[(2R)-1,1,1-trifluoropropan-2-yl]pyridine-3-sulfonamide] has an IC50 [1] of under 500 nM and a melting point of 178 to 181 °C.

In the case of Cc1ccc2c(c1)c(C#N)c(-c1ccc(S(=O)(=O)NC(CF)CF)cn1)n2C1CCCC1 [compound 158, 6-(3-cyano-1-cyclopentyl-5-methyl-1H-indol-2-yl)-N-(1,3-difluoropropan-2-yl)pyridine-3-sulfonamide], the IC50 [1] is reported as under 500 nM and the melting point is reported as 168 to 173 °C.

Cc1ccc2c(c1)c(C#N)c(-c1ncc(S(=O)(=O)NC(C)C)cn1)n2CC1CC1 [compound 388, 2-[3-cyano-1-(cyclopropylmethyl)-5-methyl-1H-indol-2-yl]-N-(propan-2-yl)pyrimidine-5-sulfonamide] gave an IC50 [1] of 500 to 2000 nM and a melting point of 219 to 222 °C.

CCc1cc2c(cc1F)c(C#N)c(-c1ccc(S(=O)(=O)NCC3CCC3)cn1)n2-c1ncccn1 [compound 953, 6-[3-cyano-6-ethyl-5-fluoro-1-(pyrimidin-2-yl)-1H-indol-2-yl]-N-(cyclobutylmethyl)pyridine-3-sulfonamide] gave an IC50 [1] of under 500 nM and a melting point of 207 to 214 °C.

With C[C@H](NS(=O)(=O)c1ccc(-c2c(C#N)c3cc(F)ccc3n2C2CCCCC2)nc1)C(F)(F)F [compound 410, 6-(3-cyano-1-cyclohexyl-5-fluoro-1H-indol-2-yl)-N-[(2S)-1,1,1-trifluoropropan-2-yl]pyridine-3-sulfonamide] the IC50 [1] was under 500 nM and the melting point was 209 to 211 °C.

Cc1cc2c(cc1F)c(C#N)c(-c1ccc(S(=O)(=O)N[C@@H](C)C(F)(F)F)cn1)n2-c1cccs1 [compound 990, 6-[3-cyano-5-fluoro-6-methyl-1-(thiophen-2-yl)-1H-indol-2-yl]-N-[(2S)-1,1,1-trifluoropropan-2-yl]pyridine-3-sulfonamide] showed an IC50 [1] of under 500 nM and a melting point of 233 to 240 °C.

In the case of N#Cc1c(-c2ccc(S(=O)(=O)NC(CF)CF)cn2)n(C2CCCC2)c2ccc(OC(F)F)cc12 [compound 33, 6-[3-cyano-1-cyclopentyl-5-(difluoromethoxy)-1H-indol-2-yl]-N-(1,3-difluoropropan-2-yl)pyridine-3-sulfonamide], the IC50 [1] is reported as under 500 nM and the melting point is reported as 172 to 175 °C.

With C[C@H](NS(=O)(=O)c1cnc(-c2c(C#N)c3ccc(OC(F)F)cc3n2C2CCC2)nc1)C(F)(F)F [compound 323, 2-[3-cyano-1-cyclobutyl-6-(difluoromethoxy)-1H-indol-2-yl]-N-[(2S)-1,1,1-trifluoropropan-2-yl]pyrimidine-5-sulfonamide] the IC50 [1] was under 500 nM and the melting point was 221 to 223 °C.

For Cc1ccc2c(C#N)c(-c3ccc(S(=O)(=O)NC(CF)CF)cn3)n(C(C)C)c2c1 [compound 80, 6-[3-cyano-6-methyl-1-(propan-2-yl)-1H-indol-2-yl]-N-(1,3-difluoropropan-2-yl)pyridine-3-sulfonamide], the IC50 [1] was under 500 nM and the melting point was 188 to 195 °C.

In the case of Cc1cc2c(cc1F)c(C#N)c(-c1ccc(S(=O)(=O)NC(C)(C)C)cn1)n2-c1ccccc1 [compound 1108, N-tert-butyl-6-(3-cyano-5-fluoro-6-methyl-1-phenyl-1H-indol-2-yl)pyridine-3-sulfonamide], the IC50 [1] is reported as under 500 nM and the melting point is reported as 200.6 to 202.4 °C.

N#Cc1ccc2c(C#N)c(-c3ccc(S(=O)(=O)NC(CF)CF)cn3)n(CC3CC3)c2c1 [compound 347, 6-[3,6-dicyano-1-(cyclopropylmethyl)-1H-indol-2-yl]-N-(1,3-difluoropropan-2-yl)pyridine-3-sulfonamide] gave an IC50 [1] of 500 to 2000 nM and a melting point of 199 to 201 °C.

Work on CCc1cc2c(cc1F)c(C#N)c(-c1ccc(S(=O)(=O)N[C@@H](C)C(F)(F)F)cn1)n2-c1ccc(F)cc1 [compound 1002, 6-[3-cyano-6-ethyl-5-fluoro-1-(4-fluorophenyl)-1H-indol-2-yl]-N-[(2S)-1,1,1-trifluoropropan-2-yl]pyridine-3-sulfonamide] yielded an IC50 [1] of under 500 nM and a melting point of 236 to 243 °C.

N#Cc1c(-c2ncc(S(=O)(=O)NC(CF)CF)cn2)n(C2CCC2)c2cc(OC(F)(F)F)ccc12 [compound 177, 2-[3-cyano-1-cyclobutyl-6-(trifluoromethoxy)-1H-indol-2-yl]-N-(1,3-difluoropropan-2-yl)pyrimidine-5-sulfonamide] gave an IC50 [1] of under 500 nM and a melting point of 202 to 204 °C.

Work on CC(C)(C)S(=O)(=O)Nc1ccc(-c2c(C(N)=O)c3c(F)cc(C4CC4)cc3n2-c2ccc(F)cc2)cn1 [compound 1105, 2-{6-[(tert-butylsulfonyl)amino]pyridin-3-yl}-6-cyclopropyl-4-fluoro-1-(4-fluorophenyl)-1H-indole-3-carboxamide] yielded an IC50 [1] of under 500 nM and a melting point of 290 to 295 °C.

Compound C[C@@H](NS(=O)(=O)c1ccc(-c2c(C#N)c3cc(C(F)F)ccc3n2C2CCCC2)nc1)C(F)(F)F [compound 538, 6-[3-cyano-1-cyclopentyl-5-(difluoromethyl)-1H-indol-2-yl]-N-[(2R)-1,1,1-trifluoropropan-2-yl]pyridine-3-sulfonamide] has an IC50 [1] of under 500 nM and a melting point of 186 to 188 °C.

Work on Cc1cc2c(cc1Cl)c(C#N)c(-c1ccc(S(=O)(=O)N[C@@H](C)C(F)(F)F)cn1)n2-c1ncccn1 [compound 785, 6-[5-chloro-3-cyano-6-methyl-1-(pyrimidin-2-yl)-1H-indol-2-yl]-N-[(2S)-1,1,1-trifluoropropan-2-yl]pyridine-3-sulfonamide] yielded an IC50 [1] of under 500 nM and a melting point of 210 to 212 °C.

In the case of CCc1cc2c(cc1F)c(C#N)c(-c1ccc(S(=O)(=O)N[C@@H](C)C(F)(F)F)cn1)n2-c1cccc(C(F)(F)F)c1 [compound 1011, 6-{3-cyano-6-ethyl-5-fluoro-1-[3-(trifluoromethyl)phenyl]-1H-indol-2-yl}-N-[(2S)-1,1,1-trifluoropropan-2-yl]pyridine-3-sulfonamide], the IC50 [1] is reported as 500 to 2000 nM and the melting point is reported as 240 to 245 °C.

In the case of Cc1ccc2c(c1)c(C#N)c(-c1ncc(S(=O)(=O)N[C@@H](C)C(F)(F)F)cn1)n2C(C)C [compound 566, 2-[3-cyano-5-methyl-1-(propan-2-yl)-1H-indol-2-yl]-N-[(2S)-1,1,1-trifluoropropan-2-yl]pyrimidine-5-sulfonamide], the IC50 [1] is reported as 500 to 2000 nM and the melting point is reported as 195 to 198 °C.

C[C@H](NS(=O)(=O)c1cnc(-c2c(C#N)c3ccc(CC(F)F)cc3n2C2CCCC2)nc1)C(F)(F)F [compound 600, 2-[3-cyano-1-cyclopentyl-6-(2,2-difluoroethyl)-1H-indol-2-yl]-N-[(2S)-1,1,1-trifluoropropan-2-yl]pyrimidine-5-sulfonamide] gave an IC50 [1] of under 500 nM and a melting point of 240 to 246 °C.

Cc1cc2c(cc1F)cc(-c1ccc(S(=O)(=O)N[C@@H](C)C(F)(F)F)cn1)n2-c1ccnc(F)c1 [compound 944, 6-[5-fluoro-1-(2-fluoropyridin-4-yl)-6-methyl-1H-indol-2-yl]-N-[(2S)-1,1,1-trifluoropropan-2-yl]pyridine-3-sulfonamide] showed an IC50 [1] of 500 to 2000 nM and a melting point of 176 to 180 °C.

In the case of Cc1cc2c(cc1F)c(C#N)c(-c1ccc(S(=O)(=O)N[C@@H](C)C(F)(F)F)cn1)n2-c1ccoc1 [compound 991, 6-[3-cyano-5-fluoro-1-(furan-3-yl)-6-methyl-1H-indol-2-yl]-N-[(2S)-1,1,1-trifluoropropan-2-yl]pyridine-3-sulfonamide], the IC50 [1] is reported as under 500 nM and the melting point is reported as 215 to 219 °C.

In the case of Cc1ccc2c(c1F)c(C#N)c(-c1ccc(S(=O)(=O)NC(C)(C)C(F)(F)F)cn1)n2C1CCCC1 [compound 614, 6-(3-cyano-1-cyclopentyl-4-fluoro-5-methyl-1H-indol-2-yl)-N-(1,1,1-trifluoro-2-methylpropan-2-yl)pyridine-3-sulfonamide], the IC50 [1] is reported as 500 to 2000 nM and the melting point is reported as 200 to 205 °C.

With Cc1ccc2c(c1)c(C#N)c(-c1ncc(S(=O)(=O)NC(CF)CF)cn1)n2C(C)C [compound 567, 2-[3-cyano-5-methyl-1-(propan-2-yl)-1H-indol-2-yl]-N-(1,3-difluoropropan-2-yl)pyrimidine-5-sulfonamide] the IC50 [1] was under 500 nM and the melting point was 160 to 163 °C.

CCc1cc2c(cc1F)c(C#N)c(-c1ncc(S(=O)(=O)NC(CF)CF)cn1)n2C1CCCC1 [compound 638, 2-(3-cyano-1-cyclopentyl-6-ethyl-5-fluoro-1H-indol-2-yl)-N-(1,3-difluoropropan-2-yl)pyrimidine-5-sulfonamide] showed an IC50 [1] of under 500 nM and a melting point of 184 to 185 °C.
